Experimental data taken from publication PMC6384991, “5-Arylideneimidazolones with Amine at Position 3 as Potential Antibiotic Adjuvants against Multidrug Resistant Bacteria” (Molecules, 2019).
Where two headings read alike, the source gives them in different places. Residues, ends and D or L forms follow the SMILES beside them. *: point of attachment. βNA = c1ccc2cc(N*)ccc2c1

Key:
[1] = tested on: E. aerogenes Ea-294, Ea-298; assay: MIC (microdilution) against E. aerogenes strains devoid of AcrAB / TolC; settings: Klebsiella aerogenes
E. aerogenes Ea-289 = assay: MIC (microdilution) against E. aerogenes Ea-289 overexpressing AcrAB-TolC, porin-deficient; settings: for MIC: Klebsiella aerogenes; for increase of MIC for Ea-289 and CM-64 in comparison to Ea-298 and Ea-294: efflux overexpressing vs deficient strains
E. aerogenes CM-64 = assay: MIC (microdilution) against E. aerogenes CM-64 overexpressing AcrAB-TolC; settings: Klebsiella aerogenes
MRSA HEMSA 5 [2] = assay: MIC reduction assay: influence on oxacillin susceptibility in MRSA; assay type: cell-based, S. aureus; settings: MRSA HEMSA 5
Description: The lack of a direct antibacterial activity of arylideneimidazolone derivatives tested allowed analyzing their anti-resistance potency in combination with the β-lactam antibiotic, oxacillin. […] The potential of compounds to become antibiotic adjuvants was evaluated by comparing the drug effectiveness in the presence and absence of compounds tested, thereby, by determining activity gain parameter A (Table 5). […] Slightly lower adjuvant-like activity was determined for the imidazolone derivatives 7 and 10 (A = 8–16). The efficacy of the remaining compounds was slightly less marked, however, also significant. Although compounds tested improved noticeably the antibacterial activity of oxacillin against MRSA clinical isolate, none of them restored the activity of the antibiotic (MIC < 2 µg/mL) against this highly resistant strain.

S. aureus ATCC 25923 = assay: Intrinsic antibacterial activity (MIC, microdilution) against reference S. aureus strain; assay type: cell-based; settings: Staphylococcus aureus
Description: (§1) Initially, 12 arylideneimidazolone derivatives were evaluated in vitro for their intrinsic antibacterial effect against two strains of S. aureus: the reference strain S. aureus ATCC 25923 and extremely-drug resistant (XDR) MRSA HEMSA 5 clinical isolate. This step of the study was necessary for: (i) elucidation whether molecules tested are devoid of antistaphylococcal activity and thus cannot become antimicrobial agents by themselves; and (ii) determination of the concentrations of compounds suitable for the further assay on their antibiotic adjuvant potency. In addition, the antistaphylococcal efficacy of oxacillin, which was paired with compounds tested, in the following assays was also assessed (Table 3).

MRSA HEMSA 5 [3] = assay: Intrinsic antibacterial activity (MIC, microdilution) against MRSA HEMSA 5; assay type: cell-based, S. aureus; settings: for MIC: Staphylococcus aureus
Description: as §1

[4] = tested on: AcrAB-TolC efflux pump in E. aerogenes Ea-289; assay: Real-time efflux (RTE) assay with 1,2'-dNA; settings: compound 100 µM; Ea-289 strain
[5] = EA289, read-out: MIC (in brackets)
[6] = CM64, read-out: MIC (in brackets)
[7] = ATCC25923, S. aureus ATCC 25923, compound alone, MH II broth, read-out: MIC Value
[8] = MRSA HEMSA 5, compound alone, MH II broth, read-out: MIC Value

Row | Compound | melting point | MIC [1] | MIC (E. aerogenes Ea-289; EA289) | MIC (E. aerogenes CM-64; CM64) | reduction of MIC of oxacillin (MRSA HEMSA 5 [2]) | MIC (S. aureus ATCC 25923; [7]) | MIC (MRSA HEMSA 5 [3]; [8]) | other results
1 | CN1CCN(CCCN2C(=O)/C(=C/c3ccc(Cl)cc3)N=C2N)CC1.Cl (hydrate or solvate) [Compound 7, (Z)-5-(4-chlorobenzylidene)-2-amino-3-(3-(4-methylpiperazin-1-yl)propyl)-3H-imidazol-4(5H)-one hydrochloride] | 294 °C |  |  |  |  |  |  | 
2 | COc1ccc(/C=C2\N=C(N)N(CCCN3CCN(C)CC3)C2=O)cc1.Cl (hydrate or solvate) [Compound 8, (Z)-5-(4-Methoxybenzylidene)-2-amino-3-(3-(4-methylpiperazin-1-yl)propyl)-3H-imidazol-4(5H)-one hydrochloride] | 262 °C |  |  |  |  |  |  | 
3 | O=C(N[C@H](CO)[C@H](O)c1ccc([N+](=O)[O-])cc1)C(Cl)Cl [Chloramphenicol] |  | 200 µM | 3200 µM | 1600 µM |  |  |  | MIC ([1]; read-out: MIC (in brackets)): 64 µg/mL; MIC (E. aerogenes Ea-289; [5]): 1020 µg/mL; MIC (E. aerogenes CM-64; [6]): 512 µg/mL
4 | CN1CCN(C2=N/C(=C\c3ccc(Cl)cc3)C(=O)N2)CC1 [Compound 6, (Z)-5-(4-chlorobenzylidene)-2-(4-methylpiperazin-1-yl)-3H-imidazol-4(5H)-one] |  |  |  |  | 8 fold |  |  | MIC (S. aureus ATCC 25923; ATCC25923, read-out: MIC Value): 2000 µM; MIC (MRSA HEMSA 5 [3]; MRSA, read-out: MIC Value): 1000 µM
5 | CN1CCN(CCCN2C(=O)/C(=C/c3ccc(Cl)cc3)N=C2N)CC1.Cl [Compound 7, (Z)-5-(4-chlorobenzylidene)-2-amino-3-(3-(4-methylpiperazin-1-yl)propyl)-3H-imidazol-4(5H)-one hydrochloride] |  |  |  |  | 16 fold | 500 to 1000 µM | 1000 µM | 
6 | COc1ccc(/C=C2\N=C(N)N(CCCN3CCN(C)CC3)C2=O)cc1.Cl [Compound 8, (Z)-5-(4-Methoxybenzylidene)-2-amino-3-(3-(4-methylpiperazin-1-yl)propyl)-3H-imidazol-4(5H)-one hydrochloride] |  |  |  |  | 8 fold | > 2000 µM | > 2000 µM | 
7 | CN1CCN(CCCN2C(=O)/C(=C/c3cc4ccccc4c4ccccc34)N=C2N)CC1.Cl [Compound 10, (Z)-2-Amino-3-(3-(4-methylpiperazin-1-yl)propyl)-5-(phenanthren-9-ylmethylene)-3H-imidazol-4(5H)-one hydrochloride] | 266 to 268 °C | 500 µM | 1000 µM | 1000 µM |  | > 125 µM | > 125 µM | Inhibitory efficiency (IE) of 1,2'-dNA efflux [4]: 60%
8 | CN1CCN(CCCN2C(=O)/C(=C/c3c4ccccc4cc4ccccc34)N=C2N)CC1.Cl [Compound 11, (Z)-2-Amino-5-(anthracen-10-ylmethylene)-3-(3-(4-methylpiperazin-1-yl)propyl)-3H-imidazol-4(5H)-one hydrochloride] | 246 to 248 °C | 500 µM | > 2000 µM | > 2000 µM |  | 500 µM | 500 µM | increase of MIC for Ea-289 and CM-64 in comparison to Ea-298 and Ea-294 (E. aerogenes Ea-289): ≥ 4 fold; Inhibitory efficiency (IE) of 1,2'-dNA efflux [4]: 37%
9 | CN1CCN(CCCN2C(=O)/C(=C/c3ccc(Oc4ccccc4)cc3)N=C2N)CC1 [Compound 12, (Z)-5-(4-Phenoxybenzylidene)-2-amino-3-(3-(4-methylpiperazin-1-yl)propyl)-3H-imidazol-4(5H)-one] | 220 to 230 °C | 1000 µM | 2000 µM | 2000 µM | 8 fold |  |  | Inhibitory efficiency (IE) of 1,2'-dNA efflux [4]: 64%; MIC (S. aureus ATCC 25923; ATCC25923, read-out: MIC Value): 250 µM; MIC (MRSA HEMSA 5 [3]; MRSA, read-out: MIC Value): 250 to 500 µM
10 | CN1CCN(CCCN2C(=O)/C(=C/c3cccc4ccccc34)N=C2N)CC1.Cl [Compound 15, (Z)-2-Amino-3-(3-(4-methylpiperazin-1-yl)propyl)-5-(naphthalen-1-ylmethylene)-3H-imidazol-4(5H)-one hydrochloride] | 187 to 191 °C |  |  |  |  | 1000 µM | 1000 to 2000 µM | 
11 | Cl.NC1=N/C(=C\c2c3ccccc3cc3ccccc23)C(=O)N1CCCN1CCOCC1 [Compound 16, (Z)-2-Amino-5-(anthracen-10-ylmethylene)-3-(3-morpholinopropyl)-3H-imidazol-4(5H)-one hydrochloride] | 244 to 246 °C | 2000 µM | > 2000 µM | > 2000 µM |  | > 125 µM | > 125 µM | Inhibitory efficiency (IE) of 1,2'-dNA efflux [4]: 44%
12 | Cl.NC1=N/C(=C\c2cccc(Oc3ccccc3)c2)C(=O)N1CCCN1CCOCC1 [Compound 17, (Z)-5-(3-phenoxybenzylidene)-2-amino-3-(3-morpholinopropyl)-3H-imidazol-4(5H)-one hydrochloride] | 227 to 230 °C | 500 µM | > 2000 µM | > 2000 µM | 2 fold | 250 µM | 250 µM | increase of MIC for Ea-289 and CM-64 in comparison to Ea-298 and Ea-294 (E. aerogenes Ea-289): ≥ 4 fold; Inhibitory efficiency (IE) of 1,2'-dNA efflux [4]: 61%
13 | C[C@H]1c2cccc(O)c2C(=O)C2=C(O)[C@]3(O)C(=O)C(C(N)=O)=C(O)[C@@H](N(C)C)[C@@H]3[C@@H](O)[C@@H]21 [Doxycycline] |  | 5 µM | 18 µM | 72 µM |  |  |  | MIC ([1]; read-out: MIC (in brackets)): 2 µg/mL; MIC (E. aerogenes Ea-289; [5]): 8 µg/mL; MIC (E. aerogenes CM-64; [6]): 32 µg/mL
14 | CC[C@H]1OC(=O)[C@H](C)[C@@H](O[C@H]2C[C@@](C)(OC)[C@@H](O)[C@H](C)O2)[C@H](C)[C@@H](O[C@@H]2O[C@H](C)C[C@H](N(C)C)[C@H]2O)[C@](C)(O)C[C@@H](C)C(=O)[C@H](C)[C@@H](O)[C@]1(C)O [Erythromycin] |  | 5 µM | 350 µM | 700 µM |  |  |  | MIC ([1]; read-out: MIC (in brackets)): 4 µg/mL; MIC (E. aerogenes Ea-289; [5]): 256 µg/mL; MIC (E. aerogenes CM-64; [6]): 512 µg/mL
15 | CCn1cc(C(=O)O)c(=O)c2cc(F)c(N3CCNCC3)cc21 [Norfloxacin, norfloxacin] |  | 50 µM | 200 µM | 6 µM |  |  |  | MIC ([1]; read-out: MIC (in brackets)): 16 µg/mL; MIC (E. aerogenes Ea-289; [5]): 64 µg/mL; MIC (E. aerogenes CM-64; [6]): 2 µg/mL
16 | Cc1onc(-c2ccccc2)c1C(=O)N[C@@H]1C(=O)N2[C@@H]1SC(C)(C)[C@@H]2C(=O)O [Oxacillin, reference compound] |  |  |  |  |  | 0.59 µM | 1210 µM | MIC (S. aureus ATCC 25923; ATCC25923, S. aureus ATCC 25923, read-out: MIC Value (in brackets)): 0.25 µg/mL; MIC (MRSA HEMSA 5 [3]; MRSA HEMSA 5, read-out: MIC Value (in brackets)): 512 µg/mL
17 | NC(N)=NCCC[C@H](NC(=O)[C@@H](N)Cc1ccccc1)C(=O)Nc1ccc2ccccc2c1 [PaβN] (H-Phe-Arg-βNA) |  | 125 µM | 500 µM | 500 µM |  |  |  | 
18 | (Z)-2-Amino-5-(biphen-4-ylmethylene)-3-(2-(4-methylpiperazin-1-yl)ethyl)-3H-imidazol-4(5H)-one hydrochloride [Compound 14] |  |  |  |  | 8 fold |  |  | MIC Value (MRSA HEMSA 5 [3]; MRSA HEMSA 5, compound alone, MH II broth): 250 µM
